In patent US20110112308A1 (NOVARTIS AG, priority 2006, published 2011):

What was measured:
[1] = Approximate solubility in water and at pH 1 (supplemental testing); type: physicochemical; settings: for Form by XRPD of solid residue, Water: after equilibration in water > 20 hours
Method: (§1) An approximate solubility of the below-listed salts was determined in water and at pH 1 by suspending 5-15 mg of the salt in 1 mL of solvent. The samples were allowed to equilibrate at ambient temperature for at least 20 hours. The supernatant was filtered and used for the solubility determination, which was done gravimetrically, for the aqueous solubility, and by UV-VIS spectroscopy for pH 1. The solid residue was analyzed by XRPD. […] They were subsequently analyzed by XRPD and TGA, if the latter deemed necessary. Only irreversible or slowly reversible events can be detected.

[2] = Solid samples held at 93% r.h. (XRPD, TGA); type: physicochemical; settings: 93% r.h., 10 days
Method: as §1

approximate aqueous solubility [1]: ~1400 µg/mL | S (approximate solubility), pH 1 ([1]; EQ t > 20 hours, ambient temperature, UV-VIS): 0.42 mg/mL | S (approximate solubility), Water ([1]; EQ t > 20 hours, ambient temperature, gravimetric): 1380 µg/mL | Form by XRPD of solid residue, Water [1]: No change | Form by XRPD of solid residue, Water ([1]; listed as malate): No structural change | Solid State (EQ 93% r.h.) Form by XRPD [2]: No change
Substance: 2:1 malate (hemi-malate) salt of N-hydroxy-3-[4-[[[2-(2-methyl-1H-indol-3-yl) ethyl]amino]methyl]phenyl]-2E-2-propenamide
